Measured values: the NIST ThermoML archive (doi:10.1021/je900691n)

Assay: xn = mol fraction of the nth substance listed
Details: Liquid, Pycnometric method

COC(=O)OC [dimethyl carbonate] + O=C=O
mass density [kg/m3]
Details	308.15 K	313.15 K
6160 kPa, x1 = 0.1484	926	–
6420 kPa, x1 = 0.118	904	–
6750 kPa, x1 = 0.086	864	–
6760 kPa, x1 = 0.1484	931	–
6780 kPa, x1 = 0.1484	–	905
6900 kPa, x1 = 0.118	909	–
7020 kPa, x1 = 0.118	–	880
7160 kPa, x1 = 0.0481	787	–
7260 kPa, x1 = 0.1484	936	–
7280 kPa, x1 = 0.1484	–	909
7340 kPa, x1 = 0.086	–	834
7500 kPa, x1 = 0.118	–	886
7520 kPa, x1 = 0.0242	697	–
7620 kPa, x1 = 0.0481	800	–
7630 kPa, x1 = 0.0242	705	–
7680 kPa, x1 = 0.118	917	–
7730 kPa, x1 = 0.1484	939	–
7780 kPa, x1 = 0.0242	718	–
7780 kPa, x1 = 0.1484	–	914
7850 kPa, x1 = 0.0481	–	740
7940 kPa, x1 = 0.086	881	–
7990 kPa, x1 = 0.0242	731	–
8050 kPa, x1 = 0.0481	–	748
8050 kPa, x1 = 0.118	–	893
8200 kPa, x1 = 0.118	922	–
8220 kPa, x1 = 0.0242	–	606
8230 kPa, x1 = 0.0242	744	–
8230 kPa, x1 = 0.0481	816	–
8250 kPa, x1 = 0.0242	–	613
8250 kPa, x1 = 0.1484	943	–
8260 kPa, x1 = 0.0481	–	757
8290 kPa, x1 = 0.0242	–	622
8290 kPa, x1 = 0.1484	–	918
8350 kPa, x1 = 0.086	–	852
8380 kPa, x1 = 0.0242	–	636
8480 kPa, x1 = 0.0242	755	–
8490 kPa, x1 = 0.0242	–	650
8510 kPa, x1 = 0.0481	–	767
8590 kPa, x1 = 0.0242	–	665
8730 kPa, x1 = 0.086	890	–
8740 kPa, x1 = 0.0481	827	–
8760 kPa, x1 = 0.0242	–	681
8760 kPa, x1 = 0.1484	–	922
8780 kPa, x1 = 0.1484	947	–
8790 kPa, x1 = 0.086	–	859
8870 kPa, x1 = 0.0242	770	–
8920 kPa, x1 = 0.0242	–	692
8930 kPa, x1 = 0.0481	–	780
9000 kPa, x1 = 0.118	–	903
9030 kPa, x1 = 0.118	929	–
9110 kPa, x1 = 0.0242	–	705
9180 kPa, x1 = 0.0242	780	–
9250 kPa, x1 = 0.0481	837	–
9250 kPa, x1 = 0.086	–	865
9250 kPa, x1 = 0.1484	–	926
9260 kPa, x1 = 0.1484	950	–
9420 kPa, x1 = 0.0242	–	721
9480 kPa, x1 = 0.0481	–	795
9630 kPa, x1 = 0.0242	–	731
9630 kPa, x1 = 0.086	900	–
9640 kPa, x1 = 0.0242	792	–
9650 kPa, x1 = 0.118	–	910
9670 kPa, x1 = 0.118	935	–
9690 kPa, x1 = 0.0481	844	–
9720 kPa, x1 = 0.086	–	871
9740 kPa, x1 = 0.1484	953	–
9770 kPa, x1 = 0.1484	–	930
9920 kPa, x1 = 0.0242	799	–
9960 kPa, x1 = 0.0242	–	744
9960 kPa, x1 = 0.0481	–	807
10120 kPa, x1 = 0.0481	852	–
10130 kPa, x1 = 0.086	905	876
10180 kPa, x1 = 0.0242	806	–
10230 kPa, x1 = 0.1484	956	–
10240 kPa, x1 = 0.1484	–	934
10280 kPa, x1 = 0.0242	–	755
10300 kPa, x1 = 0.118	–	916
10420 kPa, x1 = 0.0481	–	816
10530 kPa, x1 = 0.0481	858	–
10580 kPa, x1 = 0.0242	–	765
10600 kPa, x1 = 0.0242	814	–
10600 kPa, x1 = 0.118	942	–
10740 kPa, x1 = 0.1484	–	937
10770 kPa, x1 = 0.1484	960	–
10870 kPa, x1 = 0.086	–	885
10930 kPa, x1 = 0.086	913	–
10980 kPa, x1 = 0.0242	–	775
11010 kPa, x1 = 0.0242	822	–
11010 kPa, x1 = 0.0481	–	827
11010 kPa, x1 = 0.118	–	922
11080 kPa, x1 = 0.0481	865	–
11120 kPa, x1 = 0.086	–	888
11180 kPa, x1 = 0.118	946	–
11230 kPa, x1 = 0.1484	962	–
11280 kPa, x1 = 0.1484	–	941
11290 kPa, x1 = 0.0242	828	–
11340 kPa, x1 = 0.086	917	–
11400 kPa, x1 = 0.0242	–	785
11430 kPa, x1 = 0.0481	–	834
11500 kPa, x1 = 0.0481	871	–
11550 kPa, x1 = 0.118	–	927
11710 kPa, x1 = 0.086	–	893
11740 kPa, x1 = 0.0242	–	793
11740 kPa, x1 = 0.1484	966	–
11750 kPa, x1 = 0.0242	836	–
11770 kPa, x1 = 0.1484	–	944
11800 kPa, x1 = 0.086	921	–
11950 kPa, x1 = 0.0481	–	842
12020 kPa, x1 = 0.0242	839	–
12030 kPa, x1 = 0.118	–	930
12040 kPa, x1 = 0.0481	878	–
12080 kPa, x1 = 0.0242	–	801
12130 kPa, x1 = 0.086	–	898
12210 kPa, x1 = 0.086	924	–
12230 kPa, x1 = 0.1484	969	–
12300 kPa, x1 = 0.118	954	–
12330 kPa, x1 = 0.1484	–	948
12420 kPa, x1 = 0.0242	846	–
12450 kPa, x1 = 0.0481	–	849
12520 kPa, x1 = 0.0242	–	809
12530 kPa, x1 = 0.0481	883	–
12700 kPa, x1 = 0.086	–	903
12700 kPa, x1 = 0.118	–	935
12740 kPa, x1 = 0.1484	971	–
12780 kPa, x1 = 0.0242	852	–
12850 kPa, x1 = 0.086	929	–
12970 kPa, x1 = 0.0481	888	–
13270 kPa, x1 = 0.1484	975	–
13350 kPa, x1 = 0.086	934	–
13660 kPa, x1 = 0.0481	895	–
13820 kPa, x1 = 0.1484	978	–
13850 kPa, x1 = 0.086	937	–
14140 kPa, x1 = 0.086	939	–
14270 kPa, x1 = 0.1484	980	–
14460 kPa, x1 = 0.0481	903	–
14760 kPa, x1 = 0.086	944	–
15030 kPa, x1 = 0.1484	984	–
15060 kPa, x1 = 0.068	946	–
15240 kPa, x1 = 0.0481	911	–
15490 kPa, x1 = 0.068	949	–
15690 kPa, x1 = 0.1484	987	–
16010 kPa, x1 = 0.068	953	–
16350 kPa, x1 = 0.1484	990	–
